Results: ChEMBL document CHEMBL1129930, “Analogues of methotrexate in rheumatoid arthritis. 2. Effects of 5-deazaaminopterin, 5,10-dideazaaminopterin, and analogues on type II collagen-induced arthritis in mice” (J Med Chem, 1997)

How the values were obtained:
Mus musculus [1] = assay: Tested for antiinflammatory activity on mouse type II collagen arthritis as Paw swelling of all animals in each group on day 30 at intraperitoneal dose of 6 mg/kg; type: functional
Mus musculus [2] = assay: Tested for antiinflammatory activity on mouse type II collagen arthritis as Paw swelling of all animals in each group on day 23 at intraperitoneal dose of 0.38 mg/kg; type: functional
Mus musculus [3] = assay: Tested for antiinflammatory activity on mouse type II collagen arthritis as Paw swelling of all animals in each group on day 37 at intraperitoneal dose of 3 mg/kg; type: functional
Mus musculus [4] = assay: Tested for antiinflammatory activity on mouse type II collagen arthritis as Paw swelling of all animals in each group on day 44 at intraperitoneal dose of 6 mg/kg; type: functional
Mus musculus [5] = assay: Incidence of disease (mouse type II collagen) was scored as the percentage of animals within each experimental group that exhibited joint or limb inflammation on day 37 at intraperitoneal dose of 0.75 mg/kg; type: functional
Mus musculus [6] = assay: Incidence of disease (mouse type II collagen) was scored as the percentage of animals within each experimental group that exhibited joint or limb inflammation on day 37 at intraperitoneal dose of 6 mg/kg (1 animal died); type: functional
Mus musculus [7] = assay: Tested for antiinflammatory activity on mouse type II collagen arthritis as Paw swelling of all animals in each group on day 37 at intraperitoneal dose of 6 mg/kg; type: functional
Mus musculus [8] = assay: Incidence of disease (mouse type II collagen) was scored as the percentage of animals within each experimental group that exhibited joint or limb inflammation on day 30 at intraperitoneal dose of 0.38 mg/kg; type: functional
Mus musculus [9] = assay: Tested for antiinflammatory activity on mouse type II collagen arthritis as Paw swelling of all animals in each group on day 44 at intraperitoneal dose of 0.38 mg/kg; type: functional
Mus musculus [10] = assay: Incidence of disease (mouse type II collagen) was scored as the percentage of animals within each experimental group that exhibited joint or limb inflammation on day 30 at intraperitoneal dose of 1.5 mg/kg; type: functional
Mus musculus [11] = assay: Incidence of disease (mouse type II collagen) was scored as the percentage of animals within each experimental group that exhibited joint or limb inflammation on day 44 at intraperitoneal dose of 1.5 mg/kg; type: functional
Mus musculus [12] = assay: Incidence of disease (mouse type II collagen) was scored as the percentage of animals within each experimental group that exhibited joint or limb inflammation on day 37 at intraperitoneal dose of 1.5 mg/kg; type: functional
Mus musculus [13] = assay: Tested for antiinflammatory activity on mouse type II collagen arthritis as Paw swelling of all animals in each group on day 23 at intraperitoneal dose of 0.75 mg/kg; type: functional
Mus musculus [14] = assay: Tested for antiinflammatory activity on mouse type II collagen arthritis as Paw swelling of all animals in each group on day 37 at intraperitoneal dose of 1.5 mg/kg; type: functional
Mus musculus [15] = assay: Tested for antiinflammatory activity on mouse type II collagen arthritis as Paw swelling of all animals in each group on day 23 at intraperitoneal dose of 6 mg/kg; type: functional
Mus musculus [16] = assay: Incidence of disease (mouse type II collagen) was scored as the percentage of animals within each experimental group that exhibited joint or limb inflammation on day 23 at intraperitoneal dose of 0.75 mg/kg; type: functional
Mus musculus [17] = assay: Incidence of disease (mouse type II collagen) was scored as the percentage of animals within each experimental group that exhibited joint or limb inflammation on day 37 at intraperitoneal dose of 3 mg/kg; type: functional
Mus musculus [18] = assay: Incidence of disease (mouse type II collagen) was scored as the percentage of animals within each experimental group that exhibited joint or limb inflammation on day 30 at intraperitoneal dose of 3 mg/kg; type: functional
Mus musculus [19] = assay: Incidence of disease (mouse type II collagen) was scored as the percentage of animals within each experimental group that exhibited joint or limb inflammation on day 23 at intraperitoneal dose of 3 mg/kg; type: functional
Mus musculus [20] = assay: Tested for antiinflammatory activity on mouse type II collagen arthritis as Paw swelling of all animals in each group on day 44 at intraperitoneal dose of 3 mg/kg; type: functional
Mus musculus [21] = assay: Tested for antiinflammatory activity on mouse type II collagen arthritis as Paw swelling of all animals in each group on day 44 at intraperitoneal dose of 0.75 mg/kg; type: functional
Mus musculus [22] = assay: Incidence of disease (mouse type II collagen) was scored as the percentage of animals within each experimental group that exhibited joint or limb inflammation on day 23 at intraperitoneal dose of 6 mg/kg (1 animal died); type: functional
Mus musculus [23] = assay: Tested for antiinflammatory activity on mouse type II collagen arthritis as Paw swelling of all animals in each group on day 30 at intraperitoneal dose of 3 mg/kg; type: functional
Mus musculus [24] = assay: Incidence of disease (mouse type II collagen) was scored as the percentage of animals within each experimental group that exhibited joint or limb inflammation on day 23 at intraperitoneal dose of 0.38 mg/kg; type: functional
Mus musculus [25] = assay: Tested for antiinflammatory activity on mouse type II collagen arthritis as Paw swelling of all animals in each group on day 44 at intraperitoneal dose of 1.5 mg/kg; type: functional
Mus musculus [26] = assay: Tested for antiinflammatory activity on mouse type II collagen arthritis as Paw swelling of all animals in each group on day 30 at intraperitoneal dose of 0.38 mg/kg; type: functional
Mus musculus [27] = assay: Tested for antiinflammatory activity on mouse type II collagen arthritis as Paw swelling of all animals in each group on day 30 at intraperitoneal dose of 0.75 mg/kg; type: functional
Mus musculus [28] = assay: Incidence of disease (mouse type II collagen) was scored as the percentage of animals within each experimental group that exhibited joint or limb inflammation on day 37 at intraperitoneal dose of 0.38 mg/kg; type: functional
Mus musculus [29] = assay: Incidence of disease (mouse type II collagen) was scored as the percentage of animals within each experimental group that exhibited joint or limb inflammation on day 23 at intraperitoneal dose of 1.5 mg/kg; type: functional
Mus musculus [30] = assay: Incidence of disease (mouse type II collagen) was scored as the percentage of animals within each experimental group that exhibited joint or limb inflammation on day 44 at intraperitoneal dose of 0.38 mg/kg; type: functional
Mus musculus [31] = assay: Tested for antiinflammatory activity on mouse type II collagen arthritis as Paw swelling of all animals in each group on day 37 at intraperitoneal dose of 0.38 mg/kg; type: functional
Mus musculus [32] = assay: Tested for antiinflammatory activity on mouse type II collagen arthritis as Paw swelling of all animals in each group on day 37 at intraperitoneal dose of 0.75 mg/kg; type: functional
[33] = Concentration required to inhibit the growth of chang liver cells.; type: functional; conditions: Homo sapiens
Mus musculus [34] = assay: Incidence of disease (mouse type II collagen) was scored as the percentage of animals within each experimental group that exhibited joint or limb inflammation on day 30 at intraperitoneal dose of 6 mg/kg (1 animal died); type: functional
L1210 = assay: Concentration required to inhibit the growth of L1210 cells.; type: functional, cell-based; conditions: Mus musculus
Mus musculus [35] = assay: Incidence of disease (mouse type II collagen) was scored as the percentage of animals within each experimental group that exhibited joint or limb inflammation on day 44 at intraperitoneal dose of 6 mg/kg (1 animal died); type: functional
Mus musculus [36] = assay: Incidence of disease (mouse type II collagen) was scored as the percentage of animals within each experimental group that exhibited joint or limb inflammation on day 44 at intraperitoneal dose of 0.75 mg/kg; type: functional
Mus musculus [37] = assay: Incidence of disease (mouse type II collagen) was scored as the percentage of animals within each experimental group that exhibited joint or limb inflammation on day 44 at intraperitoneal dose of 3 mg/kg; type: functional
Mus musculus [38] = assay: Incidence of disease (mouse type II collagen) was scored as the percentage of animals within each experimental group that exhibited joint or limb inflammation on day 30 at intraperitoneal dose of 0.75 mg/kg; type: functional
Mus musculus [39] = assay: Tested for antiinflammatory activity on mouse type II collagen arthritis as Paw swelling of all animals in each group on day 30 at intraperitoneal dose of 1.5 mg/kg; type: functional

## C=CCN(Cc1cnc2nc(N)nc(N)c2c1C)c1ccc(C(=O)NC(CCC(=O)O)C(=O)O)cc1 (stereo not given)
Mus musculus [1]
  Paw swelling: 2.1 mm
Mus musculus [2]
  Paw swelling: 2.17 mm
Mus musculus [3]
  Paw swelling: 2.14 mm
Mus musculus [4]
  Paw swelling: 2.13 mm
Mus musculus [5]
  Animals: 38%
Mus musculus [6]
  Animals: 0%
Mus musculus [7]
  Paw swelling: 2.15 mm
Mus musculus [8]
  Animals: 0%
Mus musculus [9]
  Paw swelling: 2.39 mm
Mus musculus [10]
  Animals: 12%
Mus musculus [11]
  Animals: 50%
Mus musculus [12]
  Animals: 25%
Mus musculus [13]
  Paw swelling: 2.17 mm
Mus musculus [14]
  Paw swelling: 2.26 mm
Mus musculus [15]
  Paw swelling: 2.09 mm
Mus musculus [16]
  Animals: 0%
Mus musculus [17]
  Animals: 0%
Mus musculus [18]
  Animals: 0%
Mus musculus [19]
  Animals: 0%
Mus musculus [20]
  Paw swelling: 2.16 mm
Mus musculus [21]
  Paw swelling: 2.36 mm
Mus musculus [22]
  Animals: 0%
Mus musculus [23]
  Paw swelling: 2.12 mm
Mus musculus [24]
  Animals: 0%
Mus musculus [25]
  Paw swelling: 2.32 mm
Mus musculus [26]
  Paw swelling: 2.17 mm
Mus musculus [27]
  Paw swelling: 2.22 mm
Mus musculus [28]
  Animals: 38%
Mus musculus [29]
  Animals: 0%
Mus musculus [30]
  Animals: 62%
Mus musculus [31]
  Paw swelling: 2.3 mm
Mus musculus [32]
  Paw swelling: 2.33 mm
[33]
  IC50: 30 nM
Mus musculus [34]
  Animals: 0%
L1210
  IC50: 3.4 nM
Mus musculus [35]
  Animals: 0%
Mus musculus [36]
  Animals: 50%
Mus musculus [37]
  Animals: 0%
Mus musculus [38]
  Animals: 25%
Mus musculus [39]
  Paw swelling: 2.24 mm
